According to publication PMC3038857, “Using Nuclear Receptor Activity to Stratify Hepatocarcinogens” (PLoS ONE, 2011):
Like-named read-outs stand apart in the source and are kept apart here.

Legend:
Mouse Liver [1] = settings: ref ToxRefDB, cited from earlier work
Mouse Liver [2] = settings: ref ToxRefDB, cited from earlier work; remark: listed apart in the source
CYP1A2 = experiment: CLZD_CYP1A2: Change in expression of CYP1A2 (primary human hepatocytes); assay type: cell-based; settings: 24 hr
Description: (§1) This is a collection of multiplexed gene expression assays focused on Phase I and II xenobiotic metabolizing enzymes and transporters. Human primary cell cultures were treated with chemicals at 5 concentrations (0.004-40 [drawing 42] M) for 6, 24 and 48 hr. Concentration- and time-response profiles of chemicals were measured by the expression of key nuclear receptor target genes, activities of CYP1A enzymes (EROD), and cell morphology. Fourteen gene targets were monitored by quantitative nuclease protection assay including: six representative cytochrome P-450 genes, four hepatic transporters, three Phase II conjugating enzymes, and one endogenous metabolism gene involved in cholesterol synthesis. The target genes associated with nuclear receptor pathways are as follows: [drawing 43] and [drawing 44] with [drawing 45]; [drawing 46] , [drawing 47] , [drawing 48] , [drawing 49] , [drawing 50] and [drawing 51] with [drawing 52]; [drawing 53] , [drawing 54] , [drawing 55] and [drawing 56] with [drawing 57]; [drawing 58] with [drawing 59]; and [drawing 60] with [drawing 61] . Assays were run in primary human hepatocyte cultures by CellzDirect Invitrogen Inc. (Durham, NC), in collaboration with EPA.
(§2) Multiplexed Gene Expression in Human Primary Hepatocytes: This is a collection of multiplexed gene expression assays focused on Phase I and II metabolic enzymes and transporters. […] Fourteen gene targets were monitored by quantitative nuclease protection assay: six representative cytochrome P450 genes, four hepatic transporters, three Phase II conjugating enzymes, and one endogenous metabolism gene involved in cholesterol synthesis. Cells were exposed at 5 concentrations (0.004-40 µM) for 6, 24 or 48 hr. Gene targets are sentinels for five nuclear receptor signaling pathways: AhR, CAR, PXR, FXR, and PPARα. All gene are associated with nuclear receptor pathways: CYP1A1 and CYP1A2 with AHR; ABCB1, ABCG2, CYP2B6, CYP2C9, CYP2C19 and UGT1A1 with CAR; CYP3A4, GSTA2, SLCO1B1 and SULT2A1 with PXR; HMGCS2 with PPARA; and ABCB11 with FXR. […] Detailed description of the methods, data and analysis methods for this dataset will be presented in a separate publication.

CYP3A4 = experiment: CLZD_CYP3A4: Change in expression of CYP3A4 (primary human hepatocytes); assay type: cell-based; settings: 24 hr
Description: as §1, §2

Rat Liver [3] = settings: ref ToxRefDB, cited from earlier work
PXR (NR1I2) [4] = target: T1, PXR (NR1I2) (Homo sapiens, UniProt O75469); experiment: ATG_PXRE_CIS: Factorial reporter gene assay (HepG2); assay type: cell-based; design: endogenous in cells; host or cells: HepG2; settings: HepG2
T1 sequence (O75469 1-434): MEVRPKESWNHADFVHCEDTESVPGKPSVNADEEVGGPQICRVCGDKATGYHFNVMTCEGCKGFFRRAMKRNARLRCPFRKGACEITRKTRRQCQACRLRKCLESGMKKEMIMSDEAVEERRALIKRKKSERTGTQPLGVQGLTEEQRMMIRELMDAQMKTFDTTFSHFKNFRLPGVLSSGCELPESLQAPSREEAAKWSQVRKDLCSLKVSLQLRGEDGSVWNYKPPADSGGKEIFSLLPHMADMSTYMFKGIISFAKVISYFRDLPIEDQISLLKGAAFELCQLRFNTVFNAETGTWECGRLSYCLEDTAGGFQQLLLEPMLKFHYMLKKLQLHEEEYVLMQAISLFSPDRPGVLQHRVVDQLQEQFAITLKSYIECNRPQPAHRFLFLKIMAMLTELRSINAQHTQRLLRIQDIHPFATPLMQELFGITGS
Method in brief: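 CIS (PXRE): HepG2 transfected with 48 TF-binding-site MRTU library. TRANS (ERRg, FXR, PPARg): one-hybrid format, extra 25 nuclear-receptor MRTUs. 7 concs, top = MTC, 3-fold serial dilution.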

CYP2B6 = experiment: CLZD_CYP2B6: Change in expression of CYP2B6 (primary human hepatocytes); assay type: cell-based; settings: 24 hr
Method in brief: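 Cultured primary human hepatocytes treated with chemicals for 6, 24 or 48 hr across five concentrations spanning 0.004-40 µM, then transcript level measured by quantitative nuclease protection in a multiplexed format.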

Mouse Liver [5] = settings: ref ToxRefDB, cited from earlier work; remark: listed apart in the source
[6] = target: T2, PPARG (peroxisome proliferator-activated receptor gamma) (Homo sapiens, UniProt P37231); experiment: ATG_PPARg_TRANS: Factorial reporter gene assay (HepG2); assay type: cell-based; settings: HepG2
T2 construct: expressed in transfected cells; host or cells: HepG2
T2 sequence (P37231 1-505): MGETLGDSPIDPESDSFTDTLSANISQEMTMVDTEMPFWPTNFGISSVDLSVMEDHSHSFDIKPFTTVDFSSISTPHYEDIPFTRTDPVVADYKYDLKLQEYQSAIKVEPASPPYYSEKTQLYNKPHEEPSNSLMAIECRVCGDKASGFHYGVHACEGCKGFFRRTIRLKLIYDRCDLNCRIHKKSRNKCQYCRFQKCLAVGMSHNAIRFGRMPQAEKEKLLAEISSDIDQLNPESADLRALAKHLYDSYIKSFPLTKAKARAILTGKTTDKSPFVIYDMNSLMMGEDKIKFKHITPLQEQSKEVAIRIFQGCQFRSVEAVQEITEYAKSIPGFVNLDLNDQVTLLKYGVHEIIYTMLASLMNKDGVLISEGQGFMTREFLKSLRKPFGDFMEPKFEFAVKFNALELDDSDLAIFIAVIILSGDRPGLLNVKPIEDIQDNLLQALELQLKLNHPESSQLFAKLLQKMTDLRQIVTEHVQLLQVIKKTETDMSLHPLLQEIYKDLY
Description: (§3) A multiple reporter transcription unit (MRTU) library consisting of 48 transcription factor binding sites was transfected into the HepG2 human liver hepatoma cell line. In addition to the cis-acting reporter genes (CIS), a modification of the approach was used to generate a trans-system (TRANS) with a mammalian one-hybrid assay consisting of an additional 25 MRTU library reporting the activity of nuclear receptor super-family members. […] These assays were performed by Attagene Inc. (Morrisville NC) under contract to EPA.
(§4) In addition to the cis-acting reporter genes (CIS), a modification of the approach was used to generate a trans-system (TRANS) with a mammalian one-hybrid assay consisting of an additional 25 MRTU library reporting the activity of nuclear receptor super-family members. […] Chemicals were then tested in the CIS and TRANS assays at seven concentrations starting at the MTC and followed by three-fold serial dilutions. These assays were performed by Attagene Inc. (Morrisville NC) under contract to EPA. Detailed description of the methods, data and analysis methods for this dataset will be presented in a separate publication.

Rat Liver [7] = settings: ref ToxRefDB, cited from earlier work; remark: listed apart in the source
Rat Liver [8] = settings: ref ToxRefDB, cited from earlier work; remark: listed apart in the source
PXR (NR1I2) [9] = target: T1, PXR (NR1I2); experiment: ATG_PXR_TRANS: Factorial reporter gene assay (HepG2); assay type: cell-based; design: endogenous in cells; host or cells: HepG2; settings: HepG2
Description: as §3, §4

CYP1A1 = experiment: CLZD_CYP1A1: Change in expression of CYP1A1 (primary human hepatocytes); assay type: cell-based; settings: 24 hr
Description: as §1, §2

[10] = mouse chronic study, liver, coded 6 / Inf, code not explained in table
[11] = rat chronic study, liver, coded 6 / 0, code not explained in table

CCCCOCCOCCOCc1cc2c(cc1CCC)OCO2 [r246]
CHR_Mouse_Liver_3_NeoplasticLesion (Mouse Liver [1]; mouse, chronic study): 6 | CHR_Mouse_Liver_2_PreneoplasticLesion (Mouse Liver [2]; mouse, chronic study): 6 | CLZD_CYP1A2_24 (CYP1A2): 5.617 | CLZD_CYP3A4_24 (CYP3A4): 5.527 | CHR_Rat_Liver_3_NeoplasticLesion (Rat Liver [3]; rat, chronic study): 0 | ATG_PXRE_CIS (PXR (NR1I2) [4]): 5.42 | CLZD_CYP2B6_24 (CYP2B6): 5.592 | CHR_Mouse_Liver_1_AnyLesion (Mouse Liver [5]; mouse, chronic study): 6 | ATG_PPARg_TRANS [6]: 4.602 | CHR_Rat_Liver_1_AnyLesion (Rat Liver [7]; rat, chronic study): 6 | CHR_Rat_Liver_2_PreneoplasticLesion (Rat Liver [8]; rat, chronic study): 6 | ATG_PXR_TRANS (PXR (NR1I2) [9]): 4.824

Clc1cccc(C(Cl)(Cl)Cl)n1 [row 221]
CHR_Mouse_Liver_3_NeoplasticLesion (Mouse Liver [1]; chronic mouse study, liver): 6 | CHR_Mouse_Liver_2_PreneoplasticLesion (Mouse Liver [2]; chronic mouse study, liver): 6 | CHR_Rat_Liver_3_NeoplasticLesion (Rat Liver [3]; chronic rat study, liver): 0 | ATG_PXRE_CIS (PXR (NR1I2) [4]): 4.292 | CLZD_CYP2B6_24 (CYP2B6): 5.088 | CHR_Mouse_Liver_1_AnyLesion (Mouse Liver [5]; chronic mouse study, liver): 6 | CHR_Rat_Liver_1_AnyLesion (Rat Liver [7]; chronic rat study, liver): 6 | CHR_Rat_Liver_2_PreneoplasticLesion (Rat Liver [8]; chronic rat study, liver): 0

COC(=O)c1ccccc1S(=O)(=O)NC(=O)Nc1nc(OC(F)F)cc(OC(F)F)n1 [r250]
CHR_Mouse_Liver_3_NeoplasticLesion (Mouse Liver [1]; mouse, chronic study): 6 | CHR_Mouse_Liver_2_PreneoplasticLesion (Mouse Liver [2]; mouse, chronic study): 6 | CHR_Rat_Liver_3_NeoplasticLesion (Rat Liver [3]; rat, chronic study): 0 | ATG_PXRE_CIS (PXR (NR1I2) [4]): 4.469 | CLZD_CYP2B6_24 (CYP2B6): 5.187 | CHR_Mouse_Liver_1_AnyLesion (Mouse Liver [5]; mouse, chronic study): 6 | CHR_Rat_Liver_1_AnyLesion (Rat Liver [7]; rat, chronic study): 0 | CHR_Rat_Liver_2_PreneoplasticLesion (Rat Liver [8]; rat, chronic study): 0

CNC(=O)Oc1ccccc1OC(C)C [r263]
CHR_Mouse_Liver_3_NeoplasticLesion (Mouse Liver [1]; mouse, chronic study): 6 | CHR_Mouse_Liver_2_PreneoplasticLesion (Mouse Liver [2]; mouse, chronic study): 6 | CLZD_CYP3A4_24 (CYP3A4): 5.055 | CHR_Rat_Liver_3_NeoplasticLesion (Rat Liver [3]; rat, chronic study): 0 | CLZD_CYP2B6_24 (CYP2B6): 5.434 | CHR_Mouse_Liver_1_AnyLesion (Mouse Liver [5]; mouse, chronic study): 6 | CHR_Rat_Liver_1_AnyLesion (Rat Liver [7]; rat, chronic study): 0 | CHR_Rat_Liver_2_PreneoplasticLesion (Rat Liver [8]; rat, chronic study): 0

CNc1cnn(-c2cccc(C(F)(F)F)c2)c(=O)c1Cl [row 222]
CHR_Mouse_Liver_3_NeoplasticLesion (Mouse Liver [1]; chronic mouse study, liver): 6 | CHR_Mouse_Liver_2_PreneoplasticLesion (Mouse Liver [2]; chronic mouse study, liver): 6 | CLZD_CYP1A2_24 (CYP1A2): 4.939 | CLZD_CYP3A4_24 (CYP3A4): 5.266 | ATG_PXRE_CIS (PXR (NR1I2) [4]): 4.62 | CLZD_CYP2B6_24 (CYP2B6): 4.975 | CHR_Mouse_Liver_1_AnyLesion (Mouse Liver [5]; chronic mouse study, liver): 6 | CLZD_CYP1A1_24 (CYP1A1): 5.028

CC1=NNC(=O)N(/N=C/c2cccnc2)C1 [r269]
CHR_Mouse_Liver_3_NeoplasticLesion (Mouse Liver [1]; chronic study, mouse liver): 6 | CHR_Mouse_Liver_2_PreneoplasticLesion (Mouse Liver [2]; chronic study, mouse liver): 6 | CHR_Rat_Liver_3_NeoplasticLesion (Rat Liver [3]; chronic study, rat liver): 6 | CHR_Mouse_Liver_1_AnyLesion (Mouse Liver [5]; chronic study, mouse liver): 6 | CHR_Rat_Liver_1_AnyLesion (Rat Liver [7]; chronic study, rat liver): 6 | CHR_Rat_Liver_2_PreneoplasticLesion (Rat Liver [8]; chronic study, rat liver): 6

CCCCNC(=O)OCC#CI [Dataset S3 row 7]
CHR_Mouse_Liver_3_NeoplasticLesion (Mouse Liver [1]; mouse chronic study, liver, neoplastic lesion, coded 6 / Inf, code not explained in the table): 6 | CHR_Mouse_Liver_2_PreneoplasticLesion (Mouse Liver [2]; mouse chronic study, liver, preneoplastic lesion, coded 6 / Inf, code not explained in the table): 6 | CHR_Rat_Liver_3_NeoplasticLesion (Rat Liver [3]; rat chronic study, liver, neoplastic lesion, coded 6 / 0, code not explained in the table): 0 | CHR_Mouse_Liver_1_AnyLesion (Mouse Liver [5]; mouse chronic study, liver, any lesion, coded 6 / Inf, code not explained in the table): 6 | CHR_Rat_Liver_1_AnyLesion (Rat Liver [7]; rat chronic study, liver, any lesion, coded 6 / 0, code not explained in the table): 6 | CHR_Rat_Liver_2_PreneoplasticLesion (Rat Liver [8]; rat chronic study, liver, preneoplastic lesion, coded 6 / 0, code not explained in the table): 0

CN1COCN(Cc2cnc(Cl)s2)/C1=N\[N+](=O)[O-] [chemical 296]
CHR_Mouse_Liver_3_NeoplasticLesion (Mouse Liver [1]; [10]): 6 | CHR_Mouse_Liver_2_PreneoplasticLesion (Mouse Liver [2]; [10]): 6 | CHR_Rat_Liver_3_NeoplasticLesion (Rat Liver [3]; [11]): 0 | CHR_Mouse_Liver_1_AnyLesion (Mouse Liver [5]; [10]): 6 | CHR_Rat_Liver_1_AnyLesion (Rat Liver [7]; [11]): 6 | CHR_Rat_Liver_2_PreneoplasticLesion (Rat Liver [8]; [11]): 0

COC(=O)c1cccc(C)c1S(=O)(=O)NC(=O)Nc1nc(OCC(F)(F)F)nc(N(C)C)n1 [chemical 317]
CHR_Mouse_Liver_3_NeoplasticLesion (Mouse Liver [1]; [10]): 6 | CHR_Mouse_Liver_2_PreneoplasticLesion (Mouse Liver [2]; [10]): 6 | CHR_Rat_Liver_3_NeoplasticLesion (Rat Liver [3]; [11]): 0 | CHR_Mouse_Liver_1_AnyLesion (Mouse Liver [5]; [10]): 6 | CHR_Rat_Liver_1_AnyLesion (Rat Liver [7]; [11]): 0 | CHR_Rat_Liver_2_PreneoplasticLesion (Rat Liver [8]; [11]): 0
